Reference: US20250144253A1, “3-((3-([1,1'-BIPHENYL]-3-YLMETHOXY)PHENOXY)METHYL)BENZONITRILE DERIVATIVES AND THE USE THEREOF” (HELMHOLTZ-ZENTRUM DRESDEN-ROSSENDORF E.V., priority 2021, published 2025)
≈ marks a conversion by molar mass, not a printed value.

Columns and labels:
[1] = Water solubility by adding water in 1 μl steps to 1 mg compound; assay type: physicochemical; settings: thermodynamic from solid
Protocol: The water solubility of compounds 85-90 was determined by weighing 1 mg of the cold compound in an Eppendorf-tube and adding water in 1 μl steps. The addition was performed until everything was dissolved. The value in mg/μl was converted to […].

PD-L1 = target: T1, PD-L1 (Homo sapiens, UniProt Q9NZQ7); assay: Saturation binding assay of Cu-64 labelled radioligands on PC3 hPSCA PD-L1 overexpressing cell line; settings: PC3 hPSCA PD-L1 cells, n = 3; for Kd: 4° C., 90 min
T1 construct: expressed in transfected cells; host or cells: PC3 hPSCA PD-L1 overexpressing cell line
Protocol: Experiments were performed on a PC3 hPSCA PD-L1 overexpressing cell line in triplicates and three experiments were performed per compound, resulting in a 3×3 data set per compound (see FIGS. 1 to 3). The saturated, upper curve represents the total binding of the compound whereas the lower, linear curve represents the unspecific binding. The specific binding is represented as the difference between total and unspecific binding.
In the following the procedure for saturation binding assay is explained: The respective Cu-64 labeled compound is prepared freshly for each experiment. The cells with PD-L1 expression were prepared in 48-well plates. Three rows in the plates were designated for determination of total binding and one row for determination of the unspecific binding. For the latter, the cells are pretreated for 15 min with a 300 fold excess of a literature known PD-L1 inhibitor with high binding to PD-L1. […] Protein determination takes place at the next day and provides the Bmax value (total density of PD-L1 receptors on cell surface). Plotting and graphical interpretation provides curves and Kd-values from graph fitting.

[2] = Distribution coefficient log D at pH 7.4; assay type: physicochemical; settings: pH 7.4, n = 3
Excerpt: In general, the more negative the values of log D the better the water solubility.

PD-L1 tumor [3] = assay: PET imaging in PD-L1 overexpressing mouse xenograft model; assay type: in vivo
Protocol: Compound 119 was tested in a PD-L1 overexpressing mouse xenograft model. PET images were recorded 2 h, 15 h and 24 h post injection (see FIG. 4). The experiments were performed with compound 119 in duplicates (two mice for each timepoint). About 10 MBq of radiolabelled compound were injected intravenously in the tail vain of an alive mouse. At 2 hrs p.i. the first image was recorded. […] At 5 hrs p.i. the second image was recorded. High uptake in liver; high uptake in colon and intestine and increased uptake in PD-L1 tumor have been observed. At 24 hrs p.i. the third image was recorded. Moderate uptake in liver, low uptake in intestine and moderate uptake in the PD-L1 positive tumor has been observed.

PD-L1 tumor [4] = assay: as above; assay type: in vivo; settings: 5 hrs p.i. (second image)

T1 sequence (Q9NZQ7 19-290): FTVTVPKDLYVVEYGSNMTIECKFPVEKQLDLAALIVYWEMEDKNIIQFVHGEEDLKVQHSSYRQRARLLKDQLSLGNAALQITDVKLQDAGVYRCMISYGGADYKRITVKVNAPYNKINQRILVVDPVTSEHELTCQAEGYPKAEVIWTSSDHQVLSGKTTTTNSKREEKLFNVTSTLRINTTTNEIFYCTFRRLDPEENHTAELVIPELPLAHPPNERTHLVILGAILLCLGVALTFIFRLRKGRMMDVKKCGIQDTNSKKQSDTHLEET

Row | SMILES | solubility [1] [mg/mL] | Kd (PD-L1) [nM] | Bmax (receptor density) (PD-L1) | Log D7.4 [2] | other results
1 | CN(CC(=O)NCC(S(=O)(=O)O)S(=O)(=O)O)Cc1cc(Cl)c(OCc2cccc(-c3cccc(OCc4cn(CCCF)nn4)c3)c2Br)cc1OCc1cncc(S(C)(=O)=O)c1 [Compound 85, 2-(2-((4-((2-Bromo-3′-((1-(3-fluoropropyl)-1H-1,2,3-triazol-4-yl)methoxy)-[1,1′-biphenyl]-3-yl)methoxy)-5-chloro-2-((5-(methylsulfonyl)pyridin-3-yl)methoxy)benzyl)(methyl)amino)acetamido)ethane-1,1-disulfonic acid] | 80 (≈ 79.7 mM) |  |  |  | 
2 | CN(CC(=O)NCC(S(=O)(=O)O)S(=O)(=O)O)Cc1cc(Cl)c(OCc2cccc(-c3cccc(OCc4cn([C@@H]5O[C@H](CO)[C@@H](O)[C@H](O)[C@H]5F)nn4)c3)c2Br)cc1OCc1cncc(S(C)(=O)=O)c1 [Compound 86, 2-(2-((4-((2-Bromo-3′-((1-((2R,3R,4S,5S,6R)-3-fluoro-4,5-dihydroxy-6-(hydroxymethyl)tetrahydro-2H-pyran-2-yl)-1H-1,2,3-triazol-4-yl)methoxy)-[1,1′-biphenyl]-3-yl)methoxy)-5-chloro-2-((5-(methylsulfonyl)pyridin-3-yl)methoxy)benzyl)(methyl)amino)acetamido)ethane-1,1-disulfonic acid] | 110 (≈ 99.2 mM) |  |  |  | 
3 | CN(CC(=O)NCC(S(=O)(=O)O)S(=O)(=O)O)Cc1cc(Cl)c(OCc2cccc(-c3cccc(OCc4cn([C@@H]5O[C@H](CF)[C@@H](O)[C@H](O)[C@H]5O)nn4)c3)c2Br)cc1OCc1cncc(S(C)(=O)=O)c1 [Compound 87, 2-(2-((4-((2-Bromo-3′-((1-((2R,3R,4S,5S,6S)-6-(fluoromethyl)-3,4,5-trihydroxytetrahydro-2H-pyran-2-yl)-1H-1,2,3-triazol-4-yl)methoxy)-[1,1′-biphenyl]-3-yl)methoxy)-5-chloro-2-((5-(methylsulfonyl)pyridin-3-yl)methoxy)benzyl)(methyl)amino)acetamido)ethane-1,1-disulfonic acid] | 115 (≈ 104 mM) |  |  |  | 
4 | Cc1c(COc2cc(OCc3cncc(S(C)(=O)=O)c3)c(CN(C)CC(=O)NCC(S(=O)(=O)O)S(=O)(=O)O)cc2Cl)cccc1-c1cccc(OCc2cn(CCCF)nn2)c1C [Compound 88, 2-(2-((5-Chloro-4-((3′-((1-(3-fluoropropyl)-1H-1,2,3-triazol-4-yl)methoxy)-2,2′-dimethyl-[1,1′-biphenyl]-3-yl)methoxy)-2-((5-(methylsulfonyl)pyridin-3-yl)methoxy)benzyl)(methyl)amino)acetamido)ethane-1,1-disulfonic acid] | 85 (≈ 89.1 mM) |  |  |  | 
5 | Cc1c(COc2cc(OCc3cncc(S(C)(=O)=O)c3)c(CN(C)CC(=O)NCC(S(=O)(=O)O)S(=O)(=O)O)cc2Cl)cccc1-c1cccc(OCc2cn([C@@H]3O[C@H](CO)[C@@H](O)[C@H](O)[C@H]3F)nn2)c1C [Compound 89, 2-(2-((5-Chloro-4-((3′-((1-((2R,3R,4S,5S,6R)-3-fluoro-4,5-dihydroxy-6-(hydroxymethyl)tetrahydro-2H-pyran-2-yl)-1H-1,2,3-triazol-4-yl)methoxy)-2,2′-dimethyl-[1,1′-biphenyl]-3-yl)methoxy)-2-((5-(methylsulfonyl)pyridin-3-yl)methoxy)benzyl)(methyl)amino)acetamido)ethane-1,1-disulfonic acid] | 120 (≈ 113 mM) |  |  |  | 
6 | Cc1c(COc2cc(OCc3cncc(S(C)(=O)=O)c3)c(CN(C)CC(=O)NCC(S(=O)(=O)O)S(=O)(=O)O)cc2Cl)cccc1-c1cccc(OCc2cn([C@@H]3O[C@H](CF)[C@@H](O)[C@H](O)[C@H]3O)nn2)c1C [Compound 90, 2-(2-((5-Chloro-4-((3′-((1-((2R,3R,4S,5S,6S)-6-(fluoromethyl)-3,4,5-trihydroxytetrahydro-2H-pyran-2-yl)-1H-1,2,3-triazol-4-yl)methoxy)-2,2′-dimethyl-[1,1′-biphenyl]-3-yl)methoxy)-2-((5-(methylsulfonyl)pyridin-3-yl)methoxy)benzyl)(methyl)amino)acetamido)ethane-1,1-disulfonic acid] | 115 (≈ 109 mM) |  |  |  | 
7 | CN(CC(=O)NCC(S(=O)(=O)O)S(=O)(=O)O)Cc1cc(Cl)c(OCc2cccc(-c3cccc(OCc4cn(CCCC5CCN(C(=O)CN6CCN(CC(=O)O)CCN(CC(=O)O)CCN(CC(=O)O)CC6)CC5)nn4)c3)c2Br)cc1OCc1cncc(S(C)(=O)=O)c1 [Compound 115] |  | 585 ± 39.6 | 11.7 ± 0.54 pmol/mg | −2.73 ± 0.04 | 
8 | CN(CC(=O)NCC(S(=O)(=O)O)S(=O)(=O)O)Cc1cc(Cl)c(OCc2cccc(-c3cccc(OCc4cn(CCOCCOCCN5CCN(C(=O)CN6CCN(CC(=O)O)CCN(CC(=O)O)CCN(CC(=O)O)CC6)CC5)nn4)c3)c2Br)cc1OCc1cncc(S(C)(=O)=O)c1 [Compound 117] |  | 357 ± 66.5 | 5.85 ± 1.14 (n = 6) pmol/mg | −3.47 ± 0.10 | 
9 | Cc1c(COc2cc(OCc3cncc(S(C)(=O)=O)c3)c(CN(C)CC(=O)NCC(S(=O)(=O)O)S(=O)(=O)O)cc2Cl)cccc1-c1cccc(OCc2cn(CCCC3CCN(C(=O)CN4CCN(CC(=O)O)CCN(CC(=O)O)CCN(CC(=O)O)CC4)CC3)nn2)c1C [Compound 118] |  | 123 ± 11.7 | 13.5 ± 0.98 pmol/mg | −2.75 ± 0.04 | 
10 | Cc1c(COc2cc(OCc3cncc(S(C)(=O)=O)c3)c(CN(C)CC(=O)NCC(S(=O)(=O)O)S(=O)(=O)O)cc2Cl)cccc1-c1cccc(OCc2cn(CCCN3CCN(C(=O)CN4CCN(CC(=O)O)CCN(CC(=O)O)CCN(CC(=O)O)CC4)CC3)nn2)c1C [Compound 119] |  | 59.9 ± 4.63 | 5.43 ± 0.46 pmol/mg | −3.14 ± 0.02 | circulation in the blood pool (PD-L1 tumor [3]; 2 hrs p.i.): did still circulate in the blood pool; uptake in PD-L1 tumor (PD-L1 tumor [3]; 2 hrs p.i.): low; uptake in bladder and intestines (PD-L1 tumor [3]; 2 hrs p.i.): high; uptake in liver (PD-L1 tumor [3]; 2 hrs p.i., about 10 MBq i.v.): Moderate; uptake in intestine (PD-L1 tumor [3]; 24 hrs p.i.): low; uptake in liver (PD-L1 tumor [3]; 24 hrs p.i.): Moderate; uptake in the PD-L1 positive tumor (PD-L1 tumor [3]; 24 hrs p.i.): moderate; uptake in PD-L1 tumor (PD-L1 tumor [4]): increased; uptake in colon and intestine (PD-L1 tumor [4]): high; uptake in liver (PD-L1 tumor [4]): High
11 | Cc1c(COc2cc(OCc3cncc(S(C)(=O)=O)c3)c(CN(C)CC(=O)NCC(S(=O)(=O)O)S(=O)(=O)O)cc2Cl)cccc1-c1cccc(OCc2cn(CCOCCOCCN3CCN(C(=O)CN4CCN(CC(=O)O)CCN(CC(=O)O)CCN(CC(=O)O)CC4)CC3)nn2)c1C [Compound 120] |  | 71.3 ± 10.1 | 7.04 ± 0.42 pmol/mg | −3.50 ± 0.01 | 
12 | Cc1c(COc2cc(OCc3cncc(C#N)c3)c(CN(C)CC(=O)NCC(S(=O)(=O)O)S(=O)(=O)O)cc2Cl)cccc1-c1cccc(OCc2cn(CCCN3CCN(C(=O)CN4CCN(CC(=O)O)CCN(CC(=O)O)CCN(CC(=O)O)CC4)CC3)nn2)c1C [Compound 121] |  | 128 ± 13.2 | 20.9 ± 2.17 pmol/mg | −2.99 ± 0.02 | 
13 | Cc1c(COc2cc(OCc3cncc(C#N)c3)c(CN(C)CC(=O)NCC(S(=O)(=O)O)S(=O)(=O)O)cc2Br)cccc1-c1cccc(OCc2cn(CCCN3CCN(C(=O)CN4CCN(CC(=O)O)CCN(CC(=O)O)CCN(CC(=O)O)CC4)CC3)nn2)c1C [Compound 122] |  | 135 ± 2.34 | 8.28 ± 0.13 pmol/mg | −3.48 ± 0.03 | 
14 | Cc1c(COc2cc(OCc3cncc(C#N)c3)c(CN(C)CC(=O)NCC(S(=O)(=O)O)S(=O)(=O)O)cc2I)cccc1-c1cccc(OCc2cn(CCCN3CCN(C(=O)CN4CCN(CC(=O)O)CCN(CC(=O)O)CCN(CC(=O)O)CC4)CC3)nn2)c1C [Compound 123] |  | 300 ± 20.6 | 49.6 ± 1.27 pmol/mg | −2.89 ± 0.02 | 
15 | Cc1c(COc2cc(OCc3cncc(S(C)(=O)=O)c3)c(CN[C@@H](CS(=O)(=O)O)C(=O)NCCS(=O)(=O)O)cc2Cl)cccc1-c1cccc(OCc2cn(CCCN3CCN(C(=O)[C@H](CS(=O)(=O)O)NC(=O)CC[C@H](C(=O)O)N4CCN(CC(=O)O)CCN(CC(=O)O)CC4)CC3)nn2)c1C [Compound 222] |  |  |  | −3.80 ± 0.02 | 
